Source: PubChem BioAssay (NCI)
“And” between values parts separate entries of the source, which are not always exact repeats. Equal values may be shown once.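 Compound exposure: 48 hours, 5 concentrations, 96-well plates. GI50: concentration for 50% inhibition of growth. Definition used: TGI = concentration required for complete inhibition of growth.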

How the values were obtained:
Assay in all cases: NCI-60 cell line screen, 48 h
RXF 393 renal = system: RXF 393 renal
SW-620 colon = system: SW-620 colon
NCI-H226 lung = system: NCI-H226 lung
SK-MEL-5 melanoma = system: SK-MEL-5 melanoma
SNB-75 CNS = system: SNB-75 CNS
HOP-62 NSCLC = system: HOP-62 NSCLC
HCT-116 colon = system: HCT-116 colon
SF-295 CNS = system: SF-295 CNS
ACHN renal = system: ACHN renal
RPMI-8226 leukemia = system: RPMI-8226 leukemia

SMILES | GI50 (RXF 393 renal) [µM] | TGI (RXF 393 renal) | GI50 (SW-620 colon) [µM] | TGI (SW-620 colon) | GI50 (NCI-H226 lung) [µM] | TGI (NCI-H226 lung) [µM] | GI50 (SK-MEL-5 melanoma) [µM] | TGI (SK-MEL-5 melanoma) | GI50 (SNB-75 CNS) [µM] | TGI (SNB-75 CNS) | GI50 (HOP-62 NSCLC) [µM] | TGI (HOP-62 NSCLC) | GI50 (HCT-116 colon) [µM] | TGI (HCT-116 colon) | GI50 (SF-295 CNS) [µM] | TGI (SF-295 CNS) | GI50 (ACHN renal) [µM] | TGI (ACHN renal) | GI50 (RPMI-8226 leukemia) [µM] | TGI (RPMI-8226 leukemia)
COc1cc(/C=N\NC(=O)CN2CCN(c3cc4c(cc3F)c(=O)c(C(=O)N/N=C/c3cc(OC)c(OC)c(OC)c3)cn4C3CC3)CC2)cc(OC)c1OC | 1.63 | 30.4 µM | 0.328 | > 100 µM | 0.34 | 1.2 | 0.417 | 5.1 µM | 0.53 | 2.12 µM | 0.374 | 21 µM | 0.219 | 0.5 µM | 0.685 | 5.58 µM | > 100 | > 100 µM | 0.299 | 
NS(=O)(=O)c1ccc2c(c1)OCCOCCOCCOCCO2 |  |  |  | > 100 µM |  | > 100 |  | > 100 µM |  | > 100 µM |  | > 100 µM |  | > 100 µM |  | > 100 µM |  | > 100 µM |  | > 100 µM
Cc1ccsc1C(=S)Nc1ccc(Cl)c(/C=N/OC(C)(C)C)c1 |  | 36.6 µM |  | > 100 µM |  | > 100 |  | > 100 µM |  |  |  | > 100 µM |  | > 100 µM |  | > 100 µM |  | 75.7 µM |  | > 100 µM
Nc1ccccc1S(=O)(=O)N(CC(=O)O)c1ccccc1 |  | > 100 µM |  | > 100 µM |  |  |  | > 100 µM |  | > 100 µM |  |  |  |  |  |  |  | > 100 µM |  | > 100 µM
COC(=O)C1(C(C)C)CCc2c(OC)ccc(OC)c2C1=O (centres undefined) |  |  |  | > 100 µM |  |  |  | > 100 µM |  |  |  | > 100 µM |  | > 100 µM |  | > 100 µM |  | > 100 µM |  | > 100 µM
CCC[CH2][Sn]([CH2]CCC)([S]c1cccc2cccnc12)[S]c1cccc2cccnc12 |  |  | 0.132 | 0.379 µM |  |  | 0.201 | 0.534 µM | 0.234 | 0.926 µM | 0.355 | 2.79 µM | 0.155 | 0.303 µM | 0.404 | 1.39 µM | 0.193 | 0.396 µM |  | 
Cc1ccc2c(C)c3c(ccc4ccccc43)c[n+]2c1 | 41.5 | > 100 µM |  |  | 21.1 | > 100 | 2.25 | 10.4 µM | 11.9 | 40.3 µM | 5.93 | 24.7 µM | 17.3 | 78.7 µM | 3.04 | 31.7 µM | 29.6 | > 100 µM | 4.92 | 41.2 µM
CCCCCCCCCCCCCC(=O)OC(/C=C/C(C)C)C(O)C(O)C(OC)C(=O)NC1CCCCN(C)C1=O (centres undefined) | > 49 | 6.22 µM and > 49 µM | > 49 | 6.06 µM and > 49 µM |  |  |  | 5.92 µM and > 49 µM |  | 8.6 µM and > 49 µM |  | 6.54 µM and > 49 µM | > 49 | 5.46 µM and > 49 µM |  | 5.97 µM and > 49 µM |  | 5.14 µM and > 49 µM | > 49 | 9.97 µM and > 49 µM
C1=C2/CC[C@H](Sc3ccccc3)C2C2(CCCCC/1)OCCO2 (some centres undefined) |  | 43.4 µM |  | > 100 µM |  | 60.4 |  |  |  | 88.2 µM |  | 58.2 µM |  | 37.1 µM |  | > 100 µM |  | 85.9 µM |  | 73.7 µM
